The text below walks through data of ChEMBL document CHEMBL5465560, “Selectivity Literature for EUbOPEN Chemogenomic Library” (2024).

The target in assay [1] is Serine/threonine-protein kinase MRCK beta (Homo sapiens) (UniProt Q9Y5S2). Description: Selectivity interaction (KinomeScan (DiscoverX)) EUB0000666a CDC42BPB. The following applies: at 10 µM.
Assay [2] addresses Maternal embryonic leucine zipper kinase (Homo sapiens) (UniProt Q14680). Put plainly: Selectivity interaction (KinomeScan (DiscoverX)) EUB0000666a MELK. The following applies: at 10 µM.
Assay [3] addresses Mitogen-activated protein kinase 10 (Homo sapiens, UniProt P53779). Description: Selectivity interaction (KinomeScan (DiscoverX)) EUB0000229b MAPK10. The following applies: at 10 µM.
Assay [4] concerns the target Rho-associated protein kinase 2 (Homo sapiens, UniProt O75116). Put plainly: Selectivity interaction (KinomeScan (DiscoverX)) EUB0000655a ROCK2. The following applies: at 10 µM.
For assay [5], the target named is Calcium/calmodulin-dependent protein kinase type II subunit alpha (Homo sapiens, UniProt Q9UQM7). Description: Selectivity interaction (KinomeScan (DiscoverX)) EUB0001619a CAMK2A. The conditions noted are these: at 1 µM.
Calcium/calmodulin-dependent protein kinase type II subunit alpha, sequence (Q9UQM7 whole entry): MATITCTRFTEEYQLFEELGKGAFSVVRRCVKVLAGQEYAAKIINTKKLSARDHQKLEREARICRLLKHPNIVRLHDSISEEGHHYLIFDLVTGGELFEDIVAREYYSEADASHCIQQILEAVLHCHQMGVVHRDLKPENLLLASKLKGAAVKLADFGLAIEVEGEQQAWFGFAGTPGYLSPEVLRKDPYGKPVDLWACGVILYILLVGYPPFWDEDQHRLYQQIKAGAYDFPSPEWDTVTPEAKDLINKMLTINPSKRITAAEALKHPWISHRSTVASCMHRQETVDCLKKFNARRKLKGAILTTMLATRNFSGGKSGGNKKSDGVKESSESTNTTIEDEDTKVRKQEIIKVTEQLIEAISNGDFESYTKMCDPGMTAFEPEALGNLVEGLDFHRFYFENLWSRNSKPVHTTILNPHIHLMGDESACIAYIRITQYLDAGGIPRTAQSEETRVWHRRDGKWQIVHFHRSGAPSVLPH
In assay [6] the target is T1, Serine/threonine-protein kinase Nek9 (Homo sapiens) (UniProt Q8TD19).
T1 sequence (whole entry): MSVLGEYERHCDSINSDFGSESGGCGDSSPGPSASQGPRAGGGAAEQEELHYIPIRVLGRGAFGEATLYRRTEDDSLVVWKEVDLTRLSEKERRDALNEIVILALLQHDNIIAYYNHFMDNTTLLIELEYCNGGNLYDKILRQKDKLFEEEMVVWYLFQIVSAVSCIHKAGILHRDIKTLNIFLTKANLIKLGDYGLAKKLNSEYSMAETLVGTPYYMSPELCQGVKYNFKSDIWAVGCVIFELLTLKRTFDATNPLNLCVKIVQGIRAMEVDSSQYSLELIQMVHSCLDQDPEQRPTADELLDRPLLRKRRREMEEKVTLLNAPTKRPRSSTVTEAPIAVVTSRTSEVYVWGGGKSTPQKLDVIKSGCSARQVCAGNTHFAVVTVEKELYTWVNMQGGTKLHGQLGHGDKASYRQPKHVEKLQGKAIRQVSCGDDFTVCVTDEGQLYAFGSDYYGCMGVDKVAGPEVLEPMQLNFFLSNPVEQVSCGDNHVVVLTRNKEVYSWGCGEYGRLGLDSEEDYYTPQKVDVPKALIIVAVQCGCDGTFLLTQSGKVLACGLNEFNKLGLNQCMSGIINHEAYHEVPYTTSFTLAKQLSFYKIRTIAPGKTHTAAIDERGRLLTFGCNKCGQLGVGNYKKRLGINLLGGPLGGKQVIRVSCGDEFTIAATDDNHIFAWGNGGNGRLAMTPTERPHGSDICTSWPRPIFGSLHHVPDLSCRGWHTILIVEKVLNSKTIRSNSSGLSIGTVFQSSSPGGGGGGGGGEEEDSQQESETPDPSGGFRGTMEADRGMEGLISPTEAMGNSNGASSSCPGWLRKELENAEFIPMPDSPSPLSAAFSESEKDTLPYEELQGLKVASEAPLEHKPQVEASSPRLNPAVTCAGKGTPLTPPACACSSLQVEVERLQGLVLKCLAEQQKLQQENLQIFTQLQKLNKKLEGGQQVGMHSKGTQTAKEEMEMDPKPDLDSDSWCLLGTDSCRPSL
Put plainly: Selectivity interaction (ActivX KiNativ screen (ex vivo kinase selectivity in human PBMCs)) EUB0001619a NEK9. In kind it is cell-based. The conditions noted are these: PBMC, at 1 µM.

For assay [7], the target named is T2, Serine/threonine-protein kinase TBK1 (Homo sapiens) (UniProt Q9UHD2).
T2 sequence (whole entry): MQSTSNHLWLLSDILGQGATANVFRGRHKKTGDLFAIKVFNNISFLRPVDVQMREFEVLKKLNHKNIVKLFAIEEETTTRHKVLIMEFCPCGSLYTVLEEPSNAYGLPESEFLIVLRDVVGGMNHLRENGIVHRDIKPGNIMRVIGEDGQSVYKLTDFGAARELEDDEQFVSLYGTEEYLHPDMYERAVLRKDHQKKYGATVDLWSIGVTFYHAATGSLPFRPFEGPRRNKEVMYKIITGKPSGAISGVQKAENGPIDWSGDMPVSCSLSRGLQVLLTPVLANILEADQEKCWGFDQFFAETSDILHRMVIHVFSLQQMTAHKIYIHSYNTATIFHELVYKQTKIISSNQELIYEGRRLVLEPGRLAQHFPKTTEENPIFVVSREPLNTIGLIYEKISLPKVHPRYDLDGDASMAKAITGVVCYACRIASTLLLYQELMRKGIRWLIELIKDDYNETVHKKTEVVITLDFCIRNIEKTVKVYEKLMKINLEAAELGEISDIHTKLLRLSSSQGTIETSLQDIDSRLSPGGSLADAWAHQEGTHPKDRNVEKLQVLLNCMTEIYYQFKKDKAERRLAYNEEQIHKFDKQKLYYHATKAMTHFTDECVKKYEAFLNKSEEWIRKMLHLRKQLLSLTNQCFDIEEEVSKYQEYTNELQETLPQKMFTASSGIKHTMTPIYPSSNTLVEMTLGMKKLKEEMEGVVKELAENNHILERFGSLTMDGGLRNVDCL
Put plainly: Selectivity interaction (Kinase screening (Nanosyn)) EUB0000604a TBK1.

In assay [8] the target is Hepatocyte growth factor-like protein (Homo sapiens) (UniProt P26927).
For assay [9], the system named is eIF-2-alpha kinase GCN2 (Homo sapiens), Q9P2K8 [S808G]. Description: Selectivity interaction (KinomeScan (DiscoverX)) EUB0001049a EIF2AK4. The following applies: at 1 µM.
The target of assay [10] is Mitogen-activated protein kinase kinase kinase 1 (Homo sapiens, UniProt Q13233). Description: Selectivity interaction (KinomeScan (DiscoverX)) EUB0000045b MAP3K1.
Mitogen-activated protein kinase kinase kinase 1, sequence (Q13233 whole entry): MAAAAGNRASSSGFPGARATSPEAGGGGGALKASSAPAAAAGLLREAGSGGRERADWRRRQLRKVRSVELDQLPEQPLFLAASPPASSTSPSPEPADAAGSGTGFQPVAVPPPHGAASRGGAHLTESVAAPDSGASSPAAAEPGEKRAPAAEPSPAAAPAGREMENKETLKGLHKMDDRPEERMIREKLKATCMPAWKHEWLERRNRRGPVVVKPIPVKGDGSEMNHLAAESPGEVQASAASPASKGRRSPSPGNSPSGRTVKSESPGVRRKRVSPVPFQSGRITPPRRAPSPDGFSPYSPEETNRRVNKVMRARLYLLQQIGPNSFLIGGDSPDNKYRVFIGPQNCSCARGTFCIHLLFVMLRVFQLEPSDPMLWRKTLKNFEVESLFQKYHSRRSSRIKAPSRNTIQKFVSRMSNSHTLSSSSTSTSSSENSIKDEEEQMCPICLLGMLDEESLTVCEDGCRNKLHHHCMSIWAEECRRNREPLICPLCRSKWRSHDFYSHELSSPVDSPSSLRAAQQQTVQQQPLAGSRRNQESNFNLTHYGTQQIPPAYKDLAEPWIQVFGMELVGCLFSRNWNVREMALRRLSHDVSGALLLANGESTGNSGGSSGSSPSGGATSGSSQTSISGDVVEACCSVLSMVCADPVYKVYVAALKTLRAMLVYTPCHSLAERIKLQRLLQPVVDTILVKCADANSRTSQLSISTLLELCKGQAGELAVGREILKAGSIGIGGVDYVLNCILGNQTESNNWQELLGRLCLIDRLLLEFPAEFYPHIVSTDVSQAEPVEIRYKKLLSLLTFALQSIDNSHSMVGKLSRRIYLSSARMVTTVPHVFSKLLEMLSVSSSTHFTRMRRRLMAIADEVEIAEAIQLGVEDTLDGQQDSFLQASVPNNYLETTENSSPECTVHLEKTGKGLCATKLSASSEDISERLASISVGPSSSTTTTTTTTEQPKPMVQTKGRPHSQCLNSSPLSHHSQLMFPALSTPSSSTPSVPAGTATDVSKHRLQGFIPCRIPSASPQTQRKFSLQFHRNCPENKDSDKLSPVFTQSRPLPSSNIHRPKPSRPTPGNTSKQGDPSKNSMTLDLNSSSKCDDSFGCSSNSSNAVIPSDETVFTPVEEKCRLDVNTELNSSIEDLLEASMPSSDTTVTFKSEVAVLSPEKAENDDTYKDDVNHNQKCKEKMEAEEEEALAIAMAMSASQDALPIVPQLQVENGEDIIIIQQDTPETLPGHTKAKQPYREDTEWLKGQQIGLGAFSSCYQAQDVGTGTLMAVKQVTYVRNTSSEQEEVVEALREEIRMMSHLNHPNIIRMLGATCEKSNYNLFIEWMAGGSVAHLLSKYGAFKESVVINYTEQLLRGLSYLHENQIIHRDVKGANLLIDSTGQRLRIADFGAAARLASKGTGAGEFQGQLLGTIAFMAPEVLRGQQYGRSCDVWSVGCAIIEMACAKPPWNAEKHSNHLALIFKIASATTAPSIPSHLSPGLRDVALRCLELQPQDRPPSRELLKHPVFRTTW
In assay [11] the target is T3, Serine/threonine-protein kinase NLK (Homo sapiens) (UniProt Q9UBE8).
T3 sequence (whole entry): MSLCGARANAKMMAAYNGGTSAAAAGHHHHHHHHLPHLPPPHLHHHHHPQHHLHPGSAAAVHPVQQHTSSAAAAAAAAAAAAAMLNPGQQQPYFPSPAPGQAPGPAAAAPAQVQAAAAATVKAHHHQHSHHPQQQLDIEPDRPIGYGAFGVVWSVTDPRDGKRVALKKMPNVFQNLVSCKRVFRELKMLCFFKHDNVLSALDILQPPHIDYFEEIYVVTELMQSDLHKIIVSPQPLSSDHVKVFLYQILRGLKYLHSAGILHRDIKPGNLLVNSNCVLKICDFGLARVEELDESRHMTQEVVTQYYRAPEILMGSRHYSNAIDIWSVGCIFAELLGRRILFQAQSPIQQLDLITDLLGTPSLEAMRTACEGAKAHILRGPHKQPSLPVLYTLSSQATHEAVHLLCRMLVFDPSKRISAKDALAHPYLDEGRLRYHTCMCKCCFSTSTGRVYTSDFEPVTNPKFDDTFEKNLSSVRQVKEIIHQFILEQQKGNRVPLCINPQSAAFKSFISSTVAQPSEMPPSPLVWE
Put plainly: Selectivity interaction (Upstate Kinase Profiler service (Millipore)) EUB0000056c NLK. The following applies: at 1 µM.

Assay [12] addresses Serine/threonine-protein kinase N2 (Homo sapiens, UniProt Q16513). The conditions noted are these: at 10 µM.

Mitogen-activated protein kinase 10, sequence (P53779 whole entry): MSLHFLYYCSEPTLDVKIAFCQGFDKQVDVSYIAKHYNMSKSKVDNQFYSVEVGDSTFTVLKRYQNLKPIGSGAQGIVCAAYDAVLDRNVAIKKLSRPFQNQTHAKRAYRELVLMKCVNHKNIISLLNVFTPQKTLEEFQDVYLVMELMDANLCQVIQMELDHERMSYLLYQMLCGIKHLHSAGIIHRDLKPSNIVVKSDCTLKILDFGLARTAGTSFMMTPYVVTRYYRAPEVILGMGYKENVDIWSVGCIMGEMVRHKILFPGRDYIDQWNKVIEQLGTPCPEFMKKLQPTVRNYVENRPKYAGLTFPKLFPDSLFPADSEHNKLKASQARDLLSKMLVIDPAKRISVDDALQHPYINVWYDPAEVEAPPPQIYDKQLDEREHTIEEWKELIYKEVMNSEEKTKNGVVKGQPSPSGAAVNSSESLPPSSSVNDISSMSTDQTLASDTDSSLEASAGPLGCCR
Serine/threonine-protein kinase MRCK beta (Homo sapiens), sequence (Q9Y5S2 whole entry): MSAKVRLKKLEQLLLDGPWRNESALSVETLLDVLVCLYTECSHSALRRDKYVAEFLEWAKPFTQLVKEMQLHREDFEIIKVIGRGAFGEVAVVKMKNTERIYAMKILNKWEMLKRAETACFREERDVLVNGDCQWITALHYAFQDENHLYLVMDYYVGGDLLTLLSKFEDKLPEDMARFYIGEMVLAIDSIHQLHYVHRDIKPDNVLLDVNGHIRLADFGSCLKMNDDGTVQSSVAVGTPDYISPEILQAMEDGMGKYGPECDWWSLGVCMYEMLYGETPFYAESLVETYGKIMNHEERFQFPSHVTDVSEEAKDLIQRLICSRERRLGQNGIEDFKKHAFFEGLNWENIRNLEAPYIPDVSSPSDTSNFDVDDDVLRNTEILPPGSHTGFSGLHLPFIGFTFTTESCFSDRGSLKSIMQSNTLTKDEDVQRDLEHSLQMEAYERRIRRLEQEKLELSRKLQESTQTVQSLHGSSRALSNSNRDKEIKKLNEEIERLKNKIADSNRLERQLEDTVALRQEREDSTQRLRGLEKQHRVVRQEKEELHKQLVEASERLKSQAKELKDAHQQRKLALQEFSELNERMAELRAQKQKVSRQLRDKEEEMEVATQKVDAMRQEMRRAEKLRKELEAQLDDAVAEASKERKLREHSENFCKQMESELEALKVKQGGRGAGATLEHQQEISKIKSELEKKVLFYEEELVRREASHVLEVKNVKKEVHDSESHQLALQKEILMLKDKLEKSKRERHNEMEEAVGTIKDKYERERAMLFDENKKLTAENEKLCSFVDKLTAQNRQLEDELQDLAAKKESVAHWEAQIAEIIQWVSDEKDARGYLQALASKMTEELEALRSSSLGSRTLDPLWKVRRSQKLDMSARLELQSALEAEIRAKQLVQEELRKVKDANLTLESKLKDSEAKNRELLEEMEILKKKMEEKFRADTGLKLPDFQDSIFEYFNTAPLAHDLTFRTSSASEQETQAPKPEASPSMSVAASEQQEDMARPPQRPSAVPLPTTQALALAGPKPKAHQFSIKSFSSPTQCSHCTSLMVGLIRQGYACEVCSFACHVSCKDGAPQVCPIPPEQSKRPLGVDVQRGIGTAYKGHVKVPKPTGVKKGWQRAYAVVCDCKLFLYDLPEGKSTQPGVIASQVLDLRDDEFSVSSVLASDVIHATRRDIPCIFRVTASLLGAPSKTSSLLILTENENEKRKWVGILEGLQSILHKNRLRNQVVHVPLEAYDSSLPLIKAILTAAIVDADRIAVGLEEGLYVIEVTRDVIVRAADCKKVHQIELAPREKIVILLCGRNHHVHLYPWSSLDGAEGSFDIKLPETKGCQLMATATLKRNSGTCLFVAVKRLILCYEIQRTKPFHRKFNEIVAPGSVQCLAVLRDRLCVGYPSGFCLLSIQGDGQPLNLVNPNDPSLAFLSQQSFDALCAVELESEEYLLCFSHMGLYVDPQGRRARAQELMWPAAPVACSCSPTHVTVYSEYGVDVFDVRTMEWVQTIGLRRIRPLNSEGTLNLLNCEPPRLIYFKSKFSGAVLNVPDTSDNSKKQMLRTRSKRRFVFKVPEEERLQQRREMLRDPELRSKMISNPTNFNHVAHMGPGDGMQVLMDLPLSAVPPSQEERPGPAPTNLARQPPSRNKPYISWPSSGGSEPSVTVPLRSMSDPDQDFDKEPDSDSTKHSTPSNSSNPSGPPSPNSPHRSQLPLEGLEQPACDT
Maternal embryonic leucine zipper kinase (Homo sapiens), sequence (Q14680 whole entry, looked up): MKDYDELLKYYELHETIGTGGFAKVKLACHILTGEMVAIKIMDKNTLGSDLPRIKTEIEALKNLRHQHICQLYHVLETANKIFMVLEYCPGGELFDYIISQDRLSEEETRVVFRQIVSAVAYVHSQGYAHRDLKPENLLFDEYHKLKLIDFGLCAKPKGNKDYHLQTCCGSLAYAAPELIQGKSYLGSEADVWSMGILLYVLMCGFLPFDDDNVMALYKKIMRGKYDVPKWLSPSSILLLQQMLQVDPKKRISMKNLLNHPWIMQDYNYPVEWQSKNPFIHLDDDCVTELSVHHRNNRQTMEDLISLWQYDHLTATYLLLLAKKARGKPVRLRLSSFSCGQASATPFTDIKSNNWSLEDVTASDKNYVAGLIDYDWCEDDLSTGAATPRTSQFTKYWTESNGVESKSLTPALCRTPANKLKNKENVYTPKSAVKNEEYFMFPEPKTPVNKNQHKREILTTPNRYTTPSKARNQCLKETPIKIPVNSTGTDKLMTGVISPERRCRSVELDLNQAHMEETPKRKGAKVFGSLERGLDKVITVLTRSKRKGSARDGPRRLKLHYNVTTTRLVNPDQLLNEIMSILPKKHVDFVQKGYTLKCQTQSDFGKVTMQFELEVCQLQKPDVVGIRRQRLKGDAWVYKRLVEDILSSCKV

On to `O=C(NOC[C@H](O)CO)c1ccc(F)c(F)c1Nc1ccc(I)cc1F`, for which the values for the % of control in [1] and in [2] were 83% and 80%, respectively.
On to `COc1cc(N(C)c2ccnc3ccc(C(F)(F)F)cc23)cc(OC)c1OC`, for which, in assay [3], the % binding worked out at 88%.
On to `CN(C)CCOc1ccc(-c2nc(-c3ccncc3)c(-c3ccc4c(c3)CC/C4=N\O)[nH]2)cc1`, for which the % of control in [4] is 47%.
As for `N#Cc1cccc(-c2c[nH]c3ncnc(N4CCOCC4)c23)c1`, the % of control in assay [5] came to 79%. In addition, the % of inhibition in [6] was -31%.
For `Cc1cnc(Nc2ccc(F)cc2Cl)nc1-c1c[nH]c(C(=O)N[C@H](CO)c2cccc(Cl)c2)c1`, the % of inhibition came out at 3% in [7] and 4% in assay [8].
As for `COc1cc(Nc2nc(C)cc(-c3cnn4nc(OC)ccc34)n2)cc(C(F)(F)F)c1`, the % of control in assay [9] came to 100%.
Turning to `C=CC(=O)Nc1cc(-n2c(=O)ccc3cnc4ccc(-c5ccc(NS(C)(=O)=O)cc5)cc4c32)ccc1C`, the % of control in assay [10] (at 1 µM) and in assay [10] (at 10 µM) was 100% each time.
`Cc1ccc(-c2ccc3c(ccc4sc5c(c43)NC[C@@H](C)NC5=O)n2)cn1`: the % of inhibition in [11] was found to be 25%.
The molecule `COCC(=O)NC/C=C/c1ccc2ncnc(Nc3ccc(Oc4ccc(C)nc4)c(C)c3)c2c1` [CP-724714] showed a % of control in assay [12] of 99%.
